Laboratory results from ChEMBL document CHEMBL1250462, “Affinity of aporphines for the human 5-HT2A receptor: insights from homology modeling and molecular docking studies” (Bioorg Med Chem, 2010).

Biological target: 5-hydroxytryptamine receptor 2A (Homo sapiens) (UniProt P28223)
Sequence (P28223 whole entry): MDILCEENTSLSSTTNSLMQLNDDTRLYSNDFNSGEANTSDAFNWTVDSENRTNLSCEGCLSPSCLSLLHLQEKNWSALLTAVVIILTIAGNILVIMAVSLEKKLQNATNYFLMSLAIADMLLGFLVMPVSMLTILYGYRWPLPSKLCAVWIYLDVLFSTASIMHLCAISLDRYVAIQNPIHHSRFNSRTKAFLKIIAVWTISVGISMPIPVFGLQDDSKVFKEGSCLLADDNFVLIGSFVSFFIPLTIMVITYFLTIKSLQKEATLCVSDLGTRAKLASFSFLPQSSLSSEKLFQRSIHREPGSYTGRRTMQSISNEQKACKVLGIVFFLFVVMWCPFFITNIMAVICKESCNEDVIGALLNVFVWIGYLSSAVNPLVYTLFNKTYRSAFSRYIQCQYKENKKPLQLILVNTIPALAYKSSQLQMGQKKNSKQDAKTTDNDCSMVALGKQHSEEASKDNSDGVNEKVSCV
Description: Binding affinity to 5HT2A

Row | Compound | Ke [µM]
1 | COc1cc2c3c(c1OC)-c1cc4c(cc1CC3N(S(C)(=O)=O)CC2)OCO4 (stereo not drawn) | > 10
2 | COc1cc2c3c(c1OC)-c1cc4c(cc1CC3N(C(C)=O)CC2)OCO4 (stereo not drawn) | > 10
3 | COc1cc2c3c(c1OCc1ccccc1)-c1cc4c(cc1CC3N(C)CC2)OCO4 (stereo not drawn) | 4.6
